According to patent USRE38117E1, “Trioxane dimer compound having antiproliferative and antitumor activities” (Hauser, Inc., priority 1995, dated 2003):

What was measured:
Assay type in all cases: cell-based
[1] = tested on: OVCAR-5; assay: NCI 60 cell line screen (SRB), Ovarian Cancer; details: OVCAR-5 (Ovarian Cancer)
[2] = tested on: HCC-2998; assay: NCI 60 cell line screen (SRB), Colon Cancer; details: HCC-2998 (Colon Cancer)
[3] = tested on: SF-295; assay: NCI 60 cell line screen (SRB), CNS Cancer; details: SF-295 (CNS Cancer)
[4] = tested on: PC-3; assay: NCI 60 cell line screen (SRB), Prostate Cancer; details: PC-3 (Prostate Cancer)
[5] = tested on: COLO 205; assay: NCI 60 cell line screen (SRB), Colon Cancer; details: COLO 205 (Colon Cancer)
[6] = tested on: MCF7/ADR-RES; assay: NCI 60 cell line screen (SRB), Breast Cancer
[7] = tested on: CCRF-CEM; assay: NCI 60 cell line screen (SRB), Leukemia
[8] = tested on: TK-10; assay: NCI 60 cell line screen (SRB), Renal Cancer; details: TK-10 (Renal Cancer)
[9] = tested on: murine keratinocyte cell line PE; assay: Growth inhibition of PE cells (MTT assay); details: murine keratinocytes, FIGS. 1-9
Protocol: To determine the inhibitory effect of the trioxane dimers of the present invention on cell proliferation, screening assays were performed on a murine keratinocyte cell line PE. […] PE cell culture medium consisted of Eagle's minimal essential medium without calcium chloride (Whittaker Bioproducts, Walkersville, Ma.) supplemented with 8% chelexed fetal calf serum and 1% antibiotic-antimycotic (Gibco BRL) and the addition of CaCl2 to 0.05 mM Ca^++. […] (St. Louis, Mo.), and TPA was supplied by L. C. Services (Woburn, Ma.). L-[^14C]ornithine ([…]) was from Amersham/Searle Corp. (Arlington Heights, Ill.). Chemical solvents used in all assays of biological activity were of the highest grade commercially available. Growth Inhibition. […] A mitochondrial dehydrogenase reduces MTT to a blue formazan product with an absorbance maximum of 505 nm in DMSO; the number of viable cells can thus be determined spectrophotometrically. PE cells were seeded at a density of 5,000 cells/well in 50 μL of medium into 96-well microtiter plates. […] The plates were fed once at 48 h, with the readdition of the vitamin D3 analogs at this time. […] After 4 h, the MTT was removed and DMSO added to dissolve the blue formazan dye. Using a microtiter plate reader, the […] was then determined and cell number calculated from blank-subtracted absorbance values.

[10] = tested on: OVCAR-3; assay: NCI 60 cell line screen (SRB), Ovarian Cancer; details: OVCAR-3 (Ovarian Cancer)
[11] = tested on: NCI-H23; assay: NCI 60 cell line screen (SRB), Non-Small Cell Lung Cancer
[12] = tested on: ACHN; assay: NCI 60 cell line screen (SRB), Renal Cancer
[13] = tested on: A498; assay: NCI 60 cell line screen (SRB), Renal Cancer
[14] = tested on: NCI-H460; assay: NCI 60 cell line screen (SRB), Non-Small Cell Lung Cancer
[15] = tested on: A549/ATCC; assay: as above
[16] = tested on: MCF7; assay: NCI 60 cell line screen (SRB), Breast Cancer
[17] = tested on: SK-MEL-28; assay: NCI 60 cell line screen (SRB), Melanoma; details: SK-MEL-28 (Melanoma)
[18] = tested on: HOP-62; assay: NCI 60 cell line screen (SRB), Non-Small Cell Lung Cancer; details: HOP-62 (Non-Small Cell Lung Cancer)
[19] = tested on: NCI-H226; assay: as above
[20] = tested on: HCT-15; assay: NCI 60 cell line screen (SRB), Colon Cancer; details: HCT-15 (Colon Cancer)
[21] = tested on: U251; assay: NCI 60 cell line screen (SRB), CNS Cancer
[22] = tested on: NCI-H522; assay: NCI 60 cell line screen (SRB), Non-Small Cell Lung Cancer
[23] = tested on: SF-539; assay: NCI 60 cell line screen (SRB), CNS Cancer; details: SF-539 (CNS Cancer)
[24] = tested on: SW-620; assay: NCI 60 cell line screen (SRB), Colon Cancer; details: SW-620 (Colon Cancer)
[25] = tested on: HT29; assay: NCI 60 cell line screen (SRB), Colon Cancer
[26] = tested on: OVCAR-8; assay: NCI 60 cell line screen (SRB), Ovarian Cancer; details: OVCAR-8 (Ovarian Cancer)
[27] = tested on: MDA-N; assay: NCI 60 cell line screen (SRB), Breast Cancer
[28] = tested on: T-47D; assay: NCI 60 cell line screen (SRB), Breast Cancer; details: T-47D (Breast Cancer)

## COC1OC2(C)CCC3CCCC(CCOC(=O)c4ccc(C(=O)OCCC5CCCC6CCC7(C)OOC56C(OC)O7)cc4)C31OO2 (centres unmarked) [Compound 11, Bis-ester Dimer]
[1]
  Log10GI50: −5.45 M
  Log10LC50: >−4.00 M
  Log10TGI: >−4.00 M
[2]
  Log10GI50: −4.56 M
  Log10LC50: >−4.00 M
  Log10TGI: >−4.00 M
[3]
  Log10GI50: −5.49 M
  Log10LC50: >−4.00 M
  Log10TGI: >−4.00 M
[4]
  Log10GI50: −6.51 M
  Log10LC50: >−4.00 M
  Log10TGI: >−4.00 M
[5]
  Log10GI50: −6.31 M
  Log10LC50: −5.17 M
  Log10TGI: −5.71 M
[6]
  Log10GI50: −5.11 M
  Log10LC50: >−4.00 M
  Log10TGI: >−4.00 M
[7]
  Log10GI50: −6.57 M
  Log10LC50: −4.05 M
  Log10TGI: −4.89 M
[8]
  Log10GI50: −5.06 M
  Log10LC50: >−4.00 M
  Log10TGI: >−4.00 M
[9]
  antiproliferative activity: high antiproliferative activity
[10]
  Log10GI50: −5.63 M
  Log10LC50: >−4.00 M
  Log10TGI: >−4.00 M
[11]
  Log10GI50: −6.03 M
  Log10LC50: >−4.00 M
  Log10TGI: −4.19 M
[12]
  Log10GI50: −5.42 M
  Log10LC50: >−4.00 M
  Log10TGI: >−4.00 M
[13]
  Log10GI50: >−4.00 M
  Log10LC50: >−4.00 M
  Log10TGI: >−4.00 M
[14]
  Log10GI50: −6.02 M
  Log10LC50: >−4.00 M
  Log10TGI: >−4.00 M
[15]
  Log10GI50: −5.42 M
  Log10LC50: >−4.00 M
  Log10TGI: >−4.00 M
[16]
  Log10GI50: −5.86 M
  Log10LC50: >−4.00 M
  Log10TGI: >−4.00 M
[17]
  Log10GI50: −4.31 M
  Log10LC50: >−4.00 M
  Log10TGI: >−4.00 M
[18]
  Log10GI50: −5.01 M
  Log10LC50: >−4.00 M
  Log10TGI: >−4.00 M
[19]
  Log10GI50: −5.26 M
  Log10LC50: >−4.00 M
  Log10TGI: >−4.00 M
[20]
  Log10GI50: −6.12 M
  Log10LC50: >−4.00 M
  Log10TGI: >−4.00 M
[21]
  Log10GI50: −6.02 M
  Log10LC50: >−4.00 M
  Log10TGI: >−4.00 M
[22]
  Log10GI50: −5.66 M
  Log10LC50: >−4.00 M
  Log10TGI: −4.45 M
[23]
  Log10LC50: >−4.00 M
[24]
  Log10GI50: −6.12 M
  Log10LC50: >−4.00 M
  Log10TGI: >−4.00 M
[25]
  Log10GI50: −5.90 M
  Log10LC50: >−4.00 M
  Log10TGI: >−4.00 M
[26]
  Log10GI50: −6.03 M
  Log10LC50: >−4.00 M
  Log10TGI: >−4.00 M
[27]
  Log10GI50: −5.56 M
  Log10LC50: >−4.00 M
  Log10TGI: >−4.00 M

## CC(=O)O[C@H]1C(=O)[C@@]2(C)[C@H]([C@H](OC(=O)c3ccccc3)[C@]3(O)C[C@H](OC(=O)[C@H](O)[C@@H](NC(=O)c4ccccc4)c4ccccc4)C(C)=C1C3(C)C)[C@]1(OC(C)=O)CO[C@@H]1C[C@@H]2O [Paclitaxel, paclitaxel, reference compound]
[1]
  Log10GI50: −9.38 M
  Log10LC50: >−4.00 M
  Log10TGI: −4.92 M
[2]
  Log10GI50: −12.34 M
  Log10LC50: −4.26 M
  Log10TGI: −4.77 M
[28]
  Log10GI50: −9.81 M
  Log10LC50: >−4.00 M
[4]
  Log10GI50: −10.85 M
  Log10LC50: >−4.00 M
  Log10TGI: >−4.00 M
[5]
  Log10GI50: −11.07 M
  Log10LC50: >−4.41 M
[6]
  Log10GI50: −8.48 M
  Log10LC50: >−4.00 M
  Log10TGI: >−4.00 M
[7]
  Log10GI50: −11.61 M
  Log10LC50: >−4.00 M
  Log10TGI: >−4.00 M
[8]
  Log10GI50: −7.89 M
[10]
  Log10GI50: −10.40 M
  Log10LC50: >−4.00 M
  Log10TGI: −4.55 M
[12]
  Log10LC50: −4.45 M
  Log10TGI: −4.90 M
[13]
  Log10GI50: −7.14 M
  Log10LC50: −4.13 M
[14]
  Log10GI50: −12.16 M
  Log10LC50: >−4.00 M
  Log10TGI: −4.92 M
[16]
  Log10GI50: −11.69 M
  Log10LC50: >−4.00 M
[18]
  Log10GI50: −9.67 M
  Log10LC50: −4.10 M
  Log10TGI: −4.80 M
[20]
  Log10GI50: −6.37 M
  Log10LC50: >−4.00 M
  Log10TGI: >−4.00 M
[21]
  Log10GI50: −11.29 M
  Log10LC50: −4.15 M
  Log10TGI: −4.32 M
[22]
  Log10GI50: >−13.00 M
  Log10LC50: >−4.00 M
  Log10TGI: −11.20 M
[23]
  Log10GI50: −11.09 M
  Log10LC50: >−4.00 M
[24]
  Log10GI50: −11.60 M
  Log10LC50: >−4.00 M
  Log10TGI: >−4.00 M
[25]
  Log10GI50: <−13.00 M
  Log10LC50: −4.39 M
[26]
  Log10GI50: −10.75 M
  Log10LC50: >−4.00 M
[27]
  Log10GI50: <−13.00 M
